# Patent publication US8389468B2, “Approach to the treatment of compartment syndrome” (Lantmannen AS-Faktor AB, priority 2006, dated 2013)
# Entries after “also recorded” stand apart in the source; their conditions may differ.
# Legend:
# [1] = tested on: ICP after subarachnoidally deposited blood; test: Cerebral CS induced by autologous blood in the subarachnoid space, ICP; format: in vivo, Sprague-Dawley rats
# Description: A different type of cerebral CS was induced by the injection of […] whole blood in the subarachnoid space, a procedure known from the literature to result in the development of brain oedema and elevated ICP. Anaesthetized adult rats had 50-350 pL heparinzed autologous blood deposited in the subarachnoid space through a small hole drilled in the occipital bone or by injection into the cistern magna through the atlanto-occipital membrane. Holes drilled in a skull bone were eventually plugged with SuperBond@ glue. Such treatments with subarachnoidally deposited blood increased the ICP, inducing the development of a CS in a day or within a week, the exact time depending on the conditions and amount of blood deposited, in agreement with reports in the medical literature. In our experiments, injection of 0.2-0.3 mL autologous, heparinized blood in the cisterna magna in adult Sprague-Dawley rats resulted within 1-3 days in an elevation of the ICP to 13 to 30 mm Hg, as assessed with an implanted miniature pressure light guided probe (Samba System 3200 & Samba Preclin 420 sensor; Samba Sensors AB, Gruvgatan 6, SE 42130 V. Frolunda, Sweden). The ICP in normal adult rats, either non-treated or having had phosphate buffered saline (PBS) injected instead, was 6-9 mm Hg. […] This means that AF-16 is abolishing and, in case of already established cerebral CS, reducing its severity. The prompt response to AF-16 was decisive for the beneficial effect exerted by AF-16.
# HSV-1 infected rats = test: Survival of rats infected with HSV-1; format: in vivo, rat; details: 10 pg or 25 pg AF-16 intranasally twice daily
# Experimental: FIG. 3: Survival frequency of rats infected with HSV-1 by the administration of a virus solution in the right nostril on day 0. Half of the rats (n=15) were treated twice daily with 1 μg AF-16 (upper line), a peptide composed of the amino acids VCHSKTRSNPENNVGL (SEQ ID NO: 1), twice daily intranasally, while the other half received just the vehicle after the HSV-1 infection (lower line). Of those treated with just the vehicle only 10% survived day 14, contrasting to the 60% of those treated with AF-16.
# Therefore, rats were infected by instillation in their right nostril of 25 μL of a solution of the herpes simplex virus type 1 (HSV-1; strain 2762, batch 041028; 1.7×10^7 PFU/mL). Half of the animals received 10 min later 25 μL (1, 10 or 25 pg) of AF-16 in their right nostril, and had thereafter the same dose of AF-16 instilled every morning at 8 AM and every night at 6 PM until the experiment was terminated on day 14. The other half of the group of HSV-1 infected rats received 25 μL of the vehicle, PBS, at the same time schedule. The animals were several times daily closely watched for signs of behavioral dysfunction or general sickness. If so, the animals were sacrificed. The FIG. 3 is illustrating the survival rates for the animals, all being infected with HSV-1. […]
# HSV-1 [2] = test: PCR of HSV-1 DNA copies in brain tissue, rats; format: in vivo, rat; details: 1 or 10 pg intranasally twice daily
# Description: FIG. 5: Quantitative PCR performed on brain tissues from rats infected in their right nostril with HSV-1. The brain specimens were obtained between 5 to 14 days after virus inoculation in the right nostril.
# The improved survival of the HSV-1 infected rodents, as illustrated in example #2, could tentatively be due to that AF-16 blocked or at least reduced the proliferation of HSV1 virus in the infected brain. Therefore, adult rats were infected by having a solution of the herpes simplex virus type 1 (HSV-1; strain 2762, batch 041028; 1.7×10^7 PFU/mL) instilled in their right nostril. Half of the infected animals received 10 min later 25 pL (1 or 10 pg) of AF-16 in their right nostril, and had thereafter the same dose of AF-16 instilled every morning at 8 AM and every night at 6 PM until the experiment was terminated on day 6. The other groups of the HSV-1 infected rats received at the same time intervals 25 μL of the vehicle, PBS. The animals were closely watched for signs of general sickness and of behavioral and motor dysfunction. The animals were sacrificed by an overdose of anesthetics on day 6, the skull was then rapidly opened and the brain removed. […]
# HSV-1 [3] = test: Immunohistochemical visualization of HSV-1 proteins in brain, rats; format: in vivo, rat; details: 1 or 10 pg intranasally twice daily, day 6
# Experimental: An alternative explanation to the improved survival of HSV-1 infected animals could be that the treatment with AF-16 prevented the virus from multiplying and/or spreading in the brain. […] Adult rats were infected by having a solution of the herpes simplex virus type 1 (HSV-1; strain 2762, batch 041028; 1.7×10^7 PFU/mL) instilled in their right nostril. Half of the animals received 10 min later 25 pi_ (1 or 10 pg) of AF-16 in their right nostril, and had thereafter the same dose of AF-16 instilled every morning at 8 AM and every night at 6 PM until the experiment was terminated on day 6. The other groups of the HSV-1 infected rats received at the same time intervals 25 pL of the vehicle, PBS. The animals were closely watched for signs of general sickness and of behavioral and motor dysfunction. The animals were sacrificed by an overdose of anesthetics on day 6, the skull opened and the brain removed. The brains, including the olfactory bulbs, were fixed by immersion in buffered formalin for at least a day. The brains were the dissected and divided in several specimens, which were processed for light microscopic investigation after paraffin embedding and sectioning. The sections were processed for routine staining and for immunohistochemical visualization of HSV-1 proteins (FIG. 4). […] Note the distinct staining of the nerve cells (black in FIG. 4a-c).
sequence,measurement,setting,value
VCHSKTRSNPENNVGL [AF-16],ICP after treatment,[1]; 25 pg AF-16 intranasally twice daily,almost normal levels
same,"brain, behavioral and motor function","[1]; 25 pg AF-16 intranasally twice daily, vs vehicle",neither signs of impaired brain function nor any gross obvious impairment of behavioral or motor functions
same,time for elevated ICP to turn to almost normal levels,"[1]; 25 pg AF-16 intranasally twice daily, elevated ICP 13 to 30 mm Hg, normal 6-9 mm Hg",1 to 2 h
same,extent and severity of brain damage,[1]; vs vehicle PBS,reduced the extent and severity of the brain damage
same,signs of neurological dysfunction,HSV-1 infected rats,none showed any signs of neurological dysfunction
same,survival at day 14,HSV-1 infected rats,all the infected animals survived
same,HSV-1 DNA copies in brain tissue vs vehicle,HSV-1 [2],no significant difference with regard to prevalence and distribution of HSV-1 DNA copies; also recorded: does not significantly affect the HSV-1 production
same,prevalence and distribution of HSV-1 proteins in the brain vs vehicle,HSV-1 [3],no obvious difference with regard to the prevalence and distribution of HSV-1 proteins; also recorded: no difference in frequency or distribution of HSV-1 positive brain cells
